In ChEMBL document CHEMBL3526109 (Drug Metab Dispos, 2011):
Blank lines part the entries; values can stand above or below the compound they belong to.

Columns and labels:
Plasma [1] = experiment: Drug level in human plasma assessed as compound formation treated with [14C]brivanib alaninate at 800 mg, po administered as single dose via gavage measured after 4 hrs by HPLC analysis; assay type: ADME, organism-based; conditions: in vivo
Plasma [2] = experiment: Drug level in human plasma assessed as compound formation treated with [14C]brivanib alaninate at 800 mg, po administered as single dose via gavage measured after 8 hrs by HPLC analysis; assay type: ADME, organism-based; conditions: in vivo
Plasma [3] = experiment: Drug level in human plasma assessed as compound formation treated with [14C]brivanib alaninate at 800 mg, po administered as single dose via gavage measured after 12 hrs by HPLC analysis; assay type: ADME, organism-based; conditions: in vivo
Liver microsome = experiment: Drug level in human liver microsomes treated with brivanib by LC-MS/MS analysis in presence of NADPH; assay type: ADME
[4] = target: Vascular endothelial growth factor receptor 2 (Homo sapiens, UniProt P35968); experiment: Inhibition of human recombinant VEGFR-2
[5] = target: Fibroblast growth factor receptor 1 (Homo sapiens, UniProt P11362); experiment: Inhibition of human recombinant FGFR-1
Plasma [6] = experiment: Drug level in cynomolgus monkey plasma assessed as compound formation treated with [14C]brivanib alaninate at 10 mg/kg, po administered as single dose via gavage measured after 1 hr by mass spectrometry; assay type: ADME, organism-based, Macaca fascicularis; conditions: in vivo
Plasma [7] = experiment: Drug level in cynomolgus monkey plasma assessed as compound formation treated with [14C]brivanib alaninate at 10 mg/kg, po administered as single dose via gavage measured after 2 hrs by mass spectrometry; assay type: ADME, organism-based, Macaca fascicularis; conditions: in vivo
Plasma [8] = experiment: Drug level in cynomolgus monkey plasma assessed as compound formation treated with [14C]brivanib alaninate at 10 mg/kg, po administered as single dose via gavage measured after 4 hrs by mass spectrometry; assay type: ADME, organism-based, Macaca fascicularis; conditions: in vivo
Plasma [9] = experiment: Drug level in Sprague-Dawley rat plasma assessed as compound formation treated with [14C]brivanib alaninate at 100 mg/kg, po administered as single dose via gavage measured after 1 hr by HPLC analysis; assay type: ADME, organism-based; conditions: in vivo
Plasma [10] = experiment: Drug level in Sprague-Dawley rat plasma assessed as compound formation treated with [14C]brivanib alaninate at 100 mg/kg, po administered as single dose via gavage measured after 2 hrs by HPLC analysis; assay type: ADME, organism-based; conditions: in vivo
Plasma [11] = experiment: Drug level in Sprague-Dawley rat plasma assessed as compound formation treated with [14C]brivanib alaninate at 100 mg/kg, po administered as single dose via gavage measured after 6 hrs by HPLC analysis; assay type: ADME, organism-based; conditions: in vivo
Plasma [12] = experiment: Drug level in cynomolgus monkey plasma assessed as compound formation treated with [14C]brivanib alaninate at 10 mg/kg, po administered as single dose via gavage measured after 6 hrs by HPLC analysis; assay type: ADME, organism-based, Macaca fascicularis; conditions: in vivo
Plasma [13] = experiment: Drug level in cynomolgus monkey plasma assessed as compound formation treated with [14C]brivanib alaninate at 10 mg/kg, po administered as single dose via gavage measured after 12 hrs by HPLC analysis; assay type: ADME, organism-based, Macaca fascicularis; conditions: in vivo
Plasma [14] = experiment: Drug level in human plasma assessed as compound formation treated with [14C]brivanib alaninate at 800 mg, po administered as single dose via gavage measured after 1 hr by HPLC analysis; assay type: ADME, organism-based; conditions: in vivo
Plasma [15] = experiment: Drug level in human plasma assessed as compound formation treated with [14C]brivanib alaninate at 800 mg, po administered as single dose via gavage measured after 2 hrs by HPLC analysis; assay type: ADME, organism-based; conditions: in vivo
[16] = Drug level in bile duct-cannulated rat bile treated with [14C]brivanib alaninate at 100 mg/kg, po administered as single dose via gavage by mass spectrometry; assay type: ADME, organism-based; conditions: in vivo
[17] = Drug excretion in Sprague-Dawley rat urine treated with [14C]brivanib alaninate at 100 mg/kg, po administered as single dose via gavage by HPLC analysis; assay type: ADME, organism-based; conditions: in vivo
[18] = Drug excretion in Sprague-Dawley rat feces treated with [14C]brivanib alaninate at 100 mg/kg, po administered as single dose via gavage by HPLC analysis; assay type: ADME, organism-based; conditions: in vivo
[19] = Drug excretion in cynomolgus monkey urine treated with [14C]brivanib alaninate at 10 mg/kg, po administered as single dose via gavage by HPLC analysis; assay type: ADME, organism-based, Macaca fascicularis; conditions: in vivo
[20] = Drug excretion in cynomolgus monkey feces treated with [14C]brivanib alaninate at 10 mg/kg, po administered as single dose via gavage by HPLC analysis; assay type: ADME, organism-based, Macaca fascicularis; conditions: in vivo
[21] = Drug excretion in bile duct-cannulated cynomolgus monkey bile treated with [14C]brivanib alaninate at 10 mg/kg, po administered as single dose via gavage by HPLC analysis; assay type: ADME, organism-based, Macaca fascicularis; conditions: in vivo
[22] = Drug excretion in human urine treated with [14C]brivanib alaninate at 800 mg, po administered as single dose […] by HPLC analysis; assay type: ADME, organism-based; conditions: in vivo
[23] = Drug excretion in human feces treated with [14C]brivanib alaninate at 800 mg, po administered as single dose […] by HPLC analysis; assay type: ADME, organism-based; conditions: in vivo
Plasma [24] = experiment: Drug level in Sprague-Dawley rat plasma assessed as compound formation treated with [14C]brivanib alaninate at 100 mg/kg, po administered as single dose via gavage measured after 1 hr by mass spectrometry; assay type: ADME, organism-based; conditions: in vivo
Plasma [25] = experiment: Drug level in Sprague-Dawley rat plasma assessed as compound formation treated with [14C]brivanib alaninate at 100 mg/kg, po administered as single dose via gavage measured after 2 hrs by mass spectrometry; assay type: ADME, organism-based; conditions: in vivo
Plasma [26] = experiment: Drug level in Sprague-Dawley rat plasma assessed as compound formation treated with [14C]brivanib alaninate at 100 mg/kg, po administered as single dose via gavage measured after 6 hrs by mass spectrometry; assay type: ADME, organism-based; conditions: in vivo
Plasma [27] = experiment: Drug level in cynomolgus monkey plasma assessed as compound formation treated with [14C]brivanib alaninate at 10 mg/kg, po administered as single dose via gavage measured after 1 hr by HPLC analysis; assay type: ADME, organism-based, Macaca fascicularis; conditions: in vivo
Plasma [28] = experiment: Drug level in cynomolgus monkey plasma assessed as compound formation treated with [14C]brivanib alaninate at 10 mg/kg, po administered as single dose via gavage measured after 2 hrs by HPLC analysis; assay type: ADME, organism-based, Macaca fascicularis; conditions: in vivo
Plasma [29] = experiment: Drug level in cynomolgus monkey plasma assessed as compound formation treated with [14C]brivanib alaninate at 10 mg/kg, po administered as single dose via gavage measured after 4 hrs by HPLC analysis; assay type: ADME, organism-based, Macaca fascicularis; conditions: in vivo

Fibroblast growth factor receptor 1, sequence (P11362 whole entry): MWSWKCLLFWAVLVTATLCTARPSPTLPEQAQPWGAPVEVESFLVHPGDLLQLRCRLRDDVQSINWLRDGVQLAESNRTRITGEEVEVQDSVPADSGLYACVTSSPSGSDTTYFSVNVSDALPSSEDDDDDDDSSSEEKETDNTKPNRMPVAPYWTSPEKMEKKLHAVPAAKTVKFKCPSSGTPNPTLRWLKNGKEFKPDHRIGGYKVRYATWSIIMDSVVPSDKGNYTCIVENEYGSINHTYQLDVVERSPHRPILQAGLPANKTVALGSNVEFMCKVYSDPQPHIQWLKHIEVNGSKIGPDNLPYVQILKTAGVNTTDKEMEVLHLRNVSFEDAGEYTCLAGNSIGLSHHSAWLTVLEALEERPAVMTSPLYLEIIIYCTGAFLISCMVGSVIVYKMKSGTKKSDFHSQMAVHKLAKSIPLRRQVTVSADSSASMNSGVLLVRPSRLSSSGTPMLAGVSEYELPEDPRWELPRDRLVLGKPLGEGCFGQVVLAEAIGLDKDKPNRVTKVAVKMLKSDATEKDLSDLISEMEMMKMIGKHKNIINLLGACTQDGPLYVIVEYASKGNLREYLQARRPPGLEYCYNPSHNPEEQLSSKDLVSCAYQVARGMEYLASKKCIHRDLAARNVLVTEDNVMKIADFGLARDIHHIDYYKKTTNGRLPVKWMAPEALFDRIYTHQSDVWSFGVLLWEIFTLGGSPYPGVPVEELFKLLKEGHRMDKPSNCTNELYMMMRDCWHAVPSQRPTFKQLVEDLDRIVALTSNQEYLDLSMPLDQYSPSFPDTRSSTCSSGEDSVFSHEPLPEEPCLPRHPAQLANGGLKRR
Vascular endothelial growth factor receptor 2, sequence (P35968 whole entry): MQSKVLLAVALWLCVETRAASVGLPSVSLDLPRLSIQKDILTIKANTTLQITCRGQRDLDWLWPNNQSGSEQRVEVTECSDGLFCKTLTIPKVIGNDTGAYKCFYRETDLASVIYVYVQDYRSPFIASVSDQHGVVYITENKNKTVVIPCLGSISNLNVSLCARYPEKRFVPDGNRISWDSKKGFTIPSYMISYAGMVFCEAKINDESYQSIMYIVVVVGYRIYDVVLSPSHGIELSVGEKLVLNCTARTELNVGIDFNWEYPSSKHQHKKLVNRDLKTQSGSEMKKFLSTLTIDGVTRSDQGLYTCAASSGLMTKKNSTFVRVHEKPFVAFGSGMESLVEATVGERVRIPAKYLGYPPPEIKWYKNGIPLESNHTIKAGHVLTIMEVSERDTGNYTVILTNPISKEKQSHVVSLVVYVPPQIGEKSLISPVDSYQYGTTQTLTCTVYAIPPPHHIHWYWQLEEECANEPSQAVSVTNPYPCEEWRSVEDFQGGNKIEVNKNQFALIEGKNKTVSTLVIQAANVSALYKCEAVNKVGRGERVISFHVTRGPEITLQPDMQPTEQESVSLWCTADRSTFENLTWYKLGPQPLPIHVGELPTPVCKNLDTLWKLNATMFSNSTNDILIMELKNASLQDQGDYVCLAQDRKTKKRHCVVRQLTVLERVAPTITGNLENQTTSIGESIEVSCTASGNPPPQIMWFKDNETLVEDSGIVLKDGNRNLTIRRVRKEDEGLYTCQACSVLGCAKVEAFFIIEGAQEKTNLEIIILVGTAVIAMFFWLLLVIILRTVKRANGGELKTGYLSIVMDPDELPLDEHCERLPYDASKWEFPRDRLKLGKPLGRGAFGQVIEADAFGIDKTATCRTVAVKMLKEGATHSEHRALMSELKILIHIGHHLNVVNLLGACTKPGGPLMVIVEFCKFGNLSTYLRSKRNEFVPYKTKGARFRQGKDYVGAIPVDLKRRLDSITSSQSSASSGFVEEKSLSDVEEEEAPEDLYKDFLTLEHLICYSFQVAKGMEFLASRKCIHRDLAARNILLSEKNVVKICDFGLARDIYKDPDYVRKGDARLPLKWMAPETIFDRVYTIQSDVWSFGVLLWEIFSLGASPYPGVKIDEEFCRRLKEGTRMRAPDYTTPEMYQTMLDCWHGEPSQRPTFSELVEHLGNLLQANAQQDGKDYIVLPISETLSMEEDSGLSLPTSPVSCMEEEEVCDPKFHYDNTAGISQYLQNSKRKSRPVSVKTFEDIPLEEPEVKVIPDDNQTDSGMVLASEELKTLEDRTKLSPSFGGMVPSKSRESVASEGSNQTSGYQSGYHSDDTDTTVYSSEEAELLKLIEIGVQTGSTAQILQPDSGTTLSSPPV

Compound recovery (Plasma [1]): metabolite_not_detected | Compound recovery (Plasma [2]): metabolite_not_detected | Compound recovery (Plasma [3]): metabolite_not_detected | Compound recovery (Liver microsome): metabolite_detected | IC50 [4]: 78 nM | IC50 [5]: 760 nM | Compound recovery (Plasma [6]): metabolite_detected | Compound recovery (Plasma [7]): metabolite_detected | Compound recovery (Plasma [8]): metabolite_detected | Compound recovery (Plasma [9]): 1.5% | Compound recovery (Plasma [10]): 1.2% | Compound recovery (Plasma [11]): 1.1% | Compound recovery (Plasma [12]): metabolite_not_detected | Compound recovery (Plasma [13]): metabolite_not_detected | Compound recovery (Plasma [14]): metabolite_not_detected | Compound recovery (Plasma [15]): metabolite_not_detected
SMILES: Cc1c(OC[C@@H](C)O)cn2ncnc(Oc3ccc4[nH]c(CO)cc4c3F)c12

Compound recovery [16]: metabolite_detected | Compound recovery (Plasma [1]): metabolite_not_detected | Compound recovery (Plasma [2]): metabolite_not_detected | Compound recovery (Plasma [3]): metabolite_not_detected | Compound recovery [17]: metabolite_not_detected | Compound recovery [18]: metabolite_not_detected | Compound recovery [19]: 0.3% | Compound recovery [20]: metabolite_not_detected | Compound recovery [21]: 0.6% | Compound recovery [22]: 1.1% | Compound recovery [23]: metabolite_not_detected | Compound recovery (Plasma [24]): metabolite_detected | Compound recovery (Plasma [25]): metabolite_detected | Compound recovery (Plasma [26]): metabolite_detected | Compound recovery (Plasma [27]): 7.2% | Compound recovery (Plasma [28]): 2.2% | Compound recovery (Plasma [29]): 1.9% | Compound recovery (Plasma [12]): 0.9% | Compound recovery (Plasma [13]): metabolite_not_detected | Compound recovery (Plasma [14]): 2.6% | Compound recovery (Plasma [15]): 2.3%
SMILES: Cc1cc2c(F)c(Oc3ncnn4cc(OC[C@@H](C)O[C@@H]5O[C@H](C(=O)O)[C@@H](O)[C@H](O)[C@H]5O)c(C)c34)ccc2[nH]1
